Measurements published in ChEMBL document CHEMBL1150184, “CAF-603: a new antifungal carotane sesquiterpene. Isolation and structure elucidation” (1990).
Converted amounts (≈) assume the structure as drawn.

Columns and labels:
Assay type in all cases: functional
[1] = tested on: Saccharomyces cerevisiae; assay: microbe, parasite or virus in culture; conditions: IAM 4203, 24 h
Description: Antifungal activity against Saccharomyces cerevisiae IAM 4203 after 24 hrs in Yeast morphology agar medium by agar dilution method

[2] = tested on: Nakaseomyces glabratus; assay: microbe, parasite or virus in culture; conditions: OUT 6189, 24 h
Description: Antifungal activity against Torulopsis glabrata OUT 6189 after 24 hrs in Sabouraud agar medium by agar dilution method

[3] = tested on: Candida tropicalis; assay: microbe, parasite or virus in culture; conditions: IAM 4924, 24 h
Description: Antifungal activity against Candida tropicalis IAM 4924 after 24 hrs in Sabouraud agar medium by agar dilution method

[4] = tested on: Candida albicans; assay: Antifungal activity against Candida albicans MCNH3 after 24 hrs in Sabouraud agar medium by agar dilution method; conditions: MCNH3, 24 h
[5] = tested on: Saccharomyces cerevisiae; assay: microbe, parasite or virus in culture; conditions: IAM 4203, 24 h; remark: listed apart in the source
Description: Antifungal activity against Saccharomyces cerevisiae IAM 4203 after 24 hrs in Sabouraud agar medium by agar dilution method

[6] = tested on: Rhizopus arrhizus; assay: microbe, parasite or virus in culture; conditions: IAM 6052, 24 h
Description: Antifungal activity against Rhizopus arrhizus IAM 6052 after 24 hrs in Yeast morphology agar medium by agar dilution method

[7] = tested on: Meyerozyma guilliermondii; assay: Antifungal activity against Candida guilliermondii JTD after 24 hrs in Sabouraud agar medium by agar dilution method
[8] = tested on: Candida albicans; assay: microbe, parasite or virus in culture; conditions: IAM 4888, 24 h
Description: Antifungal activity against Candida albicans IAM 4888 after 24 hrs in Yeast morphology agar medium by agar dilution method

[9] = tested on: Rhizopus arrhizus; assay: microbe, parasite or virus in culture; conditions: IAM 6052, 24 h; remark: listed apart in the source
Description: Antifungal activity against Rhizopus arrhizus IAM 6052 after 24 hrs in Sabouraud agar medium by agar dilution method

[10] = tested on: Aspergillus niger; assay: Antifungal activity against Aspergillus niger NHL after 24 hrs in Sabouraud agar medium by agar dilution method
[11] = tested on: Candida albicans; assay: microbe, parasite or virus in culture; conditions: NHL 4019, 24 h
Description: Antifungal activity against Candida albicans NHL 4019 after 24 hrs in Yeast morphology agar medium by agar dilution method

[12] = tested on: Saccharomyces cerevisiae; assay: Antifungal activity against Saccharomyces cerevisiae IAM 4500 after 24 hrs in Yeast morphology agar medium by agar dilution method; conditions: IAM 4500, 24 h
[13] = tested on: Candida albicans; assay: Antifungal activity against Candida albicans MCNH4 after 24 hrs in Yeast morphology agar medium by agar dilution method; conditions: MCNH4, 24 h
[14] = tested on: Candida albicans; assay: Antifungal activity against Candida albicans MCNH2 after 24 hrs in Yeast morphology agar medium by agar dilution method; conditions: MCNH2, 24 h
[15] = tested on: Candida albicans; assay: Antifungal activity against Candida albicans MCNH1 after 24 hrs in Yeast morphology agar medium by agar dilution method; conditions: MCNH1, 24 h
[16] = tested on: Candida albicans; assay: Antifungal activity against Candida albicans MCNH4 after 24 hrs in Sabouraud agar medium by agar dilution method; conditions: MCNH4, 24 h
[17] = tested on: Aspergillus fumigatus; assay: Antifungal activity against Aspergillus fumigatus IAM 2400 after 24 hrs in Yeast morphology agar medium by agar dilution method; conditions: IAM 2400, 24 h
[18] = tested on: Candida albicans; assay: Antifungal activity against Candida albicans MCNH1 after 24 hrs in Sabouraud agar medium by agar dilution method; conditions: MCNH1, 24 h
[19] = tested on: Meyerozyma guilliermondii; assay: Antifungal activity against Candida guilliermondii JTD after 24 hrs in Yeast morphology agar medium by agar dilution method
[20] = tested on: Saccharomyces cerevisiae; assay: Antifungal activity against Saccharomyces cerevisiae IAM 4500 after 24 hrs in Sabouraud agar medium by agar dilution method; conditions: IAM 4500, 24 h
[21] = tested on: Candida albicans; assay: Antifungal activity against Candida albicans MCNH2 after 24 hrs in Sabouraud agar medium by agar dilution method; conditions: MCNH2, 24 h
[22] = tested on: Candida tropicalis; assay: microbe, parasite or virus in culture; conditions: IAM 4924, 24 h; remark: listed apart in the source
Description: Antifungal activity against Candida tropicalis IAM 4924 after 24 hrs in Yeast morphology agar medium by agar dilution method

[23] = tested on: Candida albicans; assay: microbe, parasite or virus in culture; conditions: IAM 4888, 24 h; remark: listed apart in the source
Description: Antifungal activity against Candida albicans IAM 4888 after 24 hrs in Sabouraud agar medium by agar dilution method

[24] = tested on: Pichia kudriavzevii; assay: microbe, parasite or virus in culture; conditions: IAM 4801, 24 h
Description: Antifungal activity against Candida krusei IAM 4801 after 24 hrs in Yeast morphology agar medium by agar dilution method

[25] = tested on: Candida albicans; assay: Antifungal activity against Candida albicans MCNH3 after 24 hrs in Yeast morphology agar medium by agar dilution method; conditions: MCNH3, 24 h
[26] = tested on: Pichia kudriavzevii; assay: microbe, parasite or virus in culture; conditions: IAM 4801, 24 h; remark: listed apart in the source
Description: Antifungal activity against Candida krusei IAM 4801 after 24 hrs in Sabouraud agar medium by agar dilution method

[27] = tested on: Candida albicans; assay: microbe, parasite or virus in culture; conditions: NHL 4019, 24 h; remark: listed apart in the source
Description: Antifungal activity against Candida albicans NHL 4019 after 24 hrs in Sabouraud agar medium by agar dilution method

[28] = tested on: Aspergillus fumigatus; assay: Antifungal activity against Aspergillus fumigatus IAM 2400 after 24 hrs in Sabouraud agar medium by agar dilution method; conditions: IAM 2400, 24 h
[29] = tested on: Aspergillus niger; assay: Antifungal activity against Aspergillus niger NHL after 24 hrs in Yeast morphology agar medium by agar dilution method

CC1=CC[C@@]2(C)C[C@H](O)[C@@](O)(C(C)C)[C@@H]2CC1
MIC [1]: 1.56 µg/mL (≈ 6.54 µM) | MIC [2]: 50 µg/mL (≈ 210 µM) | MIC [3]: > 100 µg/mL | MIC [4]: 12.5 µg/mL (≈ 52.4 µM) | MIC [5]: 3.13 µg/mL (≈ 13.1 µM) | MIC [6]: > 100 µg/mL | MIC [7]: > 100 µg/mL | MIC [8]: 1.56 µg/mL (≈ 6.54 µM) | MIC [9]: > 100 µg/mL | MIC [10]: 100 µg/mL (≈ 420 µM) | MIC [11]: 0.4 µg/mL (≈ 1.68 µM) | MIC [12]: > 100 µg/mL | MIC [13]: 1.56 µg/mL (≈ 6.54 µM) | MIC [14]: 1.56 µg/mL (≈ 6.54 µM) | MIC [15]: 3.13 µg/mL (≈ 13.1 µM) | MIC [16]: 6.25 µg/mL (≈ 26.2 µM) | MIC [17]: 12.5 µg/mL (≈ 52.4 µM) | MIC [18]: 6.25 µg/mL (≈ 26.2 µM) | MIC [19]: > 100 µg/mL | MIC [20]: > 100 µg/mL | MIC [21]: 3.13 µg/mL (≈ 13.1 µM) | MIC [22]: 50 µg/mL (≈ 210 µM) | MIC [23]: 12.5 µg/mL (≈ 52.4 µM) | MIC [24]: 25 µg/mL (≈ 105 µM) | MIC [25]: 3.13 µg/mL (≈ 13.1 µM) | MIC [26]: 25 µg/mL (≈ 105 µM) | MIC [27]: 0.8 µg/mL (≈ 3.36 µM) | MIC [28]: 25 µg/mL (≈ 105 µM) | MIC [29]: 12.5 µg/mL (≈ 52.4 µM)

Clc1ccc(COC(Cn2ccnc2)c2ccc(Cl)cc2Cl)c(Cl)c1.O=[N+]([O-])O (stereo not drawn) [MICONAZOLE NITRATE]
MIC [1]: 1.56 µg/mL | MIC [2]: 6.25 µg/mL | MIC [3]: 12.5 µg/mL | MIC [4]: 3.13 µg/mL | MIC [5]: 6.25 µg/mL | MIC [6]: 0.2 µg/mL | MIC [7]: 6.25 µg/mL | MIC [8]: 3.13 µg/mL | MIC [9]: 0.4 µg/mL | MIC [10]: 3.13 µg/mL | MIC [11]: < 0.05 µg/mL | MIC [12]: 12.5 µg/mL | MIC [13]: 6.25 µg/mL | MIC [14]: 12.5 µg/mL | MIC [15]: 12.5 µg/mL | MIC [16]: 6.25 µg/mL | MIC [17]: 1.56 µg/mL | MIC [18]: 12.5 µg/mL | MIC [19]: 3.13 µg/mL | MIC [20]: 3.13 µg/mL | MIC [21]: 6.25 µg/mL | MIC [22]: 6.25 µg/mL | MIC [23]: 6.25 µg/mL | MIC [24]: 0.8 µg/mL | MIC [25]: 12.5 µg/mL | MIC [26]: 0.8 µg/mL | MIC [27]: 0.05 µg/mL | MIC [28]: 0.8 µg/mL | MIC [29]: 3.13 µg/mL
